Test results taken from patent US20100092385A1, “Novel Heteroaryl Substituted Imidazo [1,2-A] Pyridine Derivatives” (ASTRAZENECA AB, priority 2007, published 2010).

molecular target: T1, synthetic Aβ 1-40 (Homo sapiens, UniProt P05067); assay: Competition binding assay; settings: [3H]PIB as radioligand (2.7 nM), synthetic Aβ 1-40, phosphate buffer pH 7.5, 30 min room temperature; read-out: IC50 in the competion binding assay
T1 construct: using synthetic Aβ 1-40 in 2.7 nM of [^3H]PIB
Procedure: Competition binding was performed in 384-well FB filter plates using synthetic Aβ 1-40 in 2.7 nM of [^3H]PIB (or another ^3H-labeled radioligand when so mentioned) in phosphate buffer at pH 7.5, by adding various concentrations of non-radioactive compounds originally dissolved in DMSO. The binding mixture was incubated for 30 min at room temperature, followed by vacuum filtration, and subsequently by washing twice with 1% Triton-X100. Scintillation fluid was thereafter added to the collected Aβ 1-40 on the filter plate, and the activity of the bound remaining radioligand ([^3H]PIB or another ^3H-labeled radioligand) was measured using 1450 Microbeta from PerkinElmer. Specific binding was determined according to the competion binding assay described herein. The determined IC50's in the competion binding assays (using [^3H]PIB as radioligand) of […] of the present invention are shown in Table 1.

T1 sequence (P05067 672-711 limits assumed): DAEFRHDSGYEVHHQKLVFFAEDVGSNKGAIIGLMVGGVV

Structure (SMILES) | IC50 [nM]
COc1ccc2nc(-c3cnc(N4CCOCC4)nc3)cn2c1 [Example 10, 6-Methoxy-2-(2-morpholin-4-ylpyrimidin-5-yl)imidazo[1,2-a]pyridine] | 1590
CNc1ccc(-c2cn3cc(C(=O)OCCF)ccc3n2)cn1 [Example 22, 2-Fluoroethyl 2-(6-methylaminopyridin-3-yl)imidazo[2,1-t]pyridine-6-carboxylate] | 469
COc1ccc2nc(-c3ccc(N4CCN(C(=O)OC(C)(C)C)CC4)nc3)cn2c1 [Example 9, tert-Butyl 4-[5-(6-methoxyimidazo[1,2-c]pyridin-2-yl)pyridin-2-yl]piperazine-1-carboxylate] | 1360
COc1ccc2nc(-c3ccc(N(C)C)nc3)cn2c1 [Example 3, 5-(6-Methoxyimidazo[1,2-a]pyridin-2-yl)-N,N-dimethylpyridin-2-amine] | 386
COc1ccc2nc(-c3cnc(OC)c(Cl)c3)cn2c1 [Example 7, 2-(5-Chloro-6-methoxypyridin-3-yl)-6-methoxyimidazo[1,2-a]pyridine] | 709
COc1ccc2nc(-c3ccc(OC)nc3)cn2c1 [Example 5, 6-Methoxy-2-(6-methoxypyridin-3-yl)imidazo[1,2-a]pyridine] | 2840
NC(=O)c1ccc(-c2cn3cc(O)ccc3n2)cn1 [Example 17, 5-(6-Hydroxyimidazo[1,2-a]pyridin-2-yl)pyridine-2-carboxamide] | 2790
COC(=O)c1ccc2nc(-c3ccc(N(C)C)nc3)cn2c1 [Example 19, Methyl 2-(6-dimethylaminopyridin-3-yl)imidazo[2,1-f]pyridine-6-carboxylate] | 739
CNc1ccc(-c2cn3cc(OC)ccc3n2)cn1 [Example 1, 5-(6-Methoxyimidazo[1,2-a]pyridin-2-yl)-N-methylpyridin-2-amine] | 2470
CNc1ccc(-c2cn3cc(C(=O)OC)ccc3n2)cn1 [Example 21, Methyl 2-(6-methylaminopyridin-3-yl)imidazo[2,1-f]pyridine-6-carboxylate] | 960
COc1ccc2nc(-c3ccc4[nH]ccc4c3)cn2c1 [Example 11, 2-(1H-Indol-5-yl)-6-methoxyimidazo[1,2-a]pyridine] | 184
CN(C)c1ccc(-c2cn3cc(O)ccc3n2)cn1 [Example 4, 2-[6-(Dimethylamino)pyridin-3-yl]imidazo[1,2-a]pyridin-6-ol] | 126
COc1ccc2nc(-c3ccc(N4CCNCC4)nc3)cn2c1 [Example 8, 6-Methoxy-2-(6-piperazin-1-ylpyridin-3-yl)imidazo[1,2-a]pyridine] | 8380
COc1ccc2nc(-c3ccc(C(N)=O)nc3)cn2c1 [Example 16, 5-(6-Methoxyimidazo[1,2-a]pyridin-2-yl)pyridine-2-carboxamide] | 2310
CN(C)c1ccc(-c2cn3cc(C(=O)OCCF)ccc3n2)cn1 [Example 20, 2-Fluoroethyl 2-(6-dimethylaminopyridin-3-yl)imidazo[2,1-f]pyridine-6-carboxylate] | 16600
COc1ccc2nc(-c3cnc(OC)c(F)c3)cn2c1 [Example 6, 2-(5-Fluoro-6-methoxypyridin-3-yl)-6-methoxyimidazo[1,2-a]pyridine] | 838
O=C(OCCF)c1ccc2nc(-c3ccc(F)nc3)cn2c1 [Example 18, 2-Fluoroethyl 2-(6-fluoropyridin-3-yl)imidazo[2,1-f]pyridine-6-carboxylate] | 17900
CNc1ccc(-c2cn3cc(O)ccc3n2)cn1 [Example 2, 2-[6-(Methylamino)pyridin-3-yl]imidazo[1,2-a]pyridin-6-ol] | 375
